These results are taken from publication PMC12846068, “Insights into Transport Function of the Murine Organic Anion-Transporting Polypeptide OATP1B2 by Comparison with Its Rat and Human Orthologues” (Toxics, 2025).

One data set addresses T1, mOATP1B2 (Mus musculus, UniProt Q9JJL3).
T1 construct: The full-length mOATP1B2 and rOATP1B2 consist of 689 and 678 amino acids
T1 sequence (Q9JJL3 1-689): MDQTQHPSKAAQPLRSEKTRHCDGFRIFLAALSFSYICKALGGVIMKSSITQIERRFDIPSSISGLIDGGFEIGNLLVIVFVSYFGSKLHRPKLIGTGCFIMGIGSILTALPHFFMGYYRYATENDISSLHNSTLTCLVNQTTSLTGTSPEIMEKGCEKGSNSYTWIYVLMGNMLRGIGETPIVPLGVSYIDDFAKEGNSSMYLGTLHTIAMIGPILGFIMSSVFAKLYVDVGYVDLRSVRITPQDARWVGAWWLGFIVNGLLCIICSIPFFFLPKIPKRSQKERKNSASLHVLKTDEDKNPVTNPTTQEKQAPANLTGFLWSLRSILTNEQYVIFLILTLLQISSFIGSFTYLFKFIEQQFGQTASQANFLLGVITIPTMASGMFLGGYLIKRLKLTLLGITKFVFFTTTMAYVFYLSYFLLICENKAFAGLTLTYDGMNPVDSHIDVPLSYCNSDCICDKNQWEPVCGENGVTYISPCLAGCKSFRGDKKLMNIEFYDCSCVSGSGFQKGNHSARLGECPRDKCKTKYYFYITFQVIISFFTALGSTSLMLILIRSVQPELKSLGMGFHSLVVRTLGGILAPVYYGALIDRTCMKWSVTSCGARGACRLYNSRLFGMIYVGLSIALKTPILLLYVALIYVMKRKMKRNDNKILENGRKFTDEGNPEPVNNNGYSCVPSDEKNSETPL
Put plainly: cis-inhibition of mOATP1B2-mediated E1S or TCA uptake in HEK293 cells. Format: cell-based. How it is done: Inhibition experiments with mOATP1B2 and rOATP2B1 were carried out in triplicate as cis-inhibition. […] Inhibitory effects were calculated as a percentage of the net-uptake rates. […] The means ± average deviation (AD, for N = 2) were calculated from two experiments on two different days. The significance as a p-value was calculated using Student's t-test in Microsoft Excel.

The target of a further data set is T2, rOATP1B2 (Rattus norvegicus, UniProt Q9QZX8).
T2 construct: The full-length mOATP1B2 and rOATP1B2 consist of 689 and 678 amino acids
T2 sequence (Q9QZX8 1-687): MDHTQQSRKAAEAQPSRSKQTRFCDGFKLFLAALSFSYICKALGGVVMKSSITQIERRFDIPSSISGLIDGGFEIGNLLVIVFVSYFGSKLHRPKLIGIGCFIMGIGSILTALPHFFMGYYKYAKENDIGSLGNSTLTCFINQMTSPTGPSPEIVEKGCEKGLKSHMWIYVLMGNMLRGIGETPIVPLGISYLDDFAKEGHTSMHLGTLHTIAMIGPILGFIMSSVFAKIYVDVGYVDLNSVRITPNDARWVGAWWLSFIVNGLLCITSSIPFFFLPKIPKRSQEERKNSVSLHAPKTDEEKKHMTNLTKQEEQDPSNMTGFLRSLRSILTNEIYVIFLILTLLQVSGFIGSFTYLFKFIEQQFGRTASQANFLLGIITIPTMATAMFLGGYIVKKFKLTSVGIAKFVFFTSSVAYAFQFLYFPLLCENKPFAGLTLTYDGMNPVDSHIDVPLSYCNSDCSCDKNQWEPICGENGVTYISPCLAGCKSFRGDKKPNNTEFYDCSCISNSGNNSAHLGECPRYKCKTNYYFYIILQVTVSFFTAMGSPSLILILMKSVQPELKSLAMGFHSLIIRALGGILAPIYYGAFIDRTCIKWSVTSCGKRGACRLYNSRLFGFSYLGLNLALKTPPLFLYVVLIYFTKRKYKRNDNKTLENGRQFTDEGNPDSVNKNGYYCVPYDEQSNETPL
Put plainly: cis-inhibition of rOATP1B2-mediated E1S or TCA uptake in HEK293 cells. The format is cell-based.

The next data set deals with T3, hOATP1B3 (Homo sapiens, UniProt Q9NPD5).
T3 sequence (Q9NPD5 1-702): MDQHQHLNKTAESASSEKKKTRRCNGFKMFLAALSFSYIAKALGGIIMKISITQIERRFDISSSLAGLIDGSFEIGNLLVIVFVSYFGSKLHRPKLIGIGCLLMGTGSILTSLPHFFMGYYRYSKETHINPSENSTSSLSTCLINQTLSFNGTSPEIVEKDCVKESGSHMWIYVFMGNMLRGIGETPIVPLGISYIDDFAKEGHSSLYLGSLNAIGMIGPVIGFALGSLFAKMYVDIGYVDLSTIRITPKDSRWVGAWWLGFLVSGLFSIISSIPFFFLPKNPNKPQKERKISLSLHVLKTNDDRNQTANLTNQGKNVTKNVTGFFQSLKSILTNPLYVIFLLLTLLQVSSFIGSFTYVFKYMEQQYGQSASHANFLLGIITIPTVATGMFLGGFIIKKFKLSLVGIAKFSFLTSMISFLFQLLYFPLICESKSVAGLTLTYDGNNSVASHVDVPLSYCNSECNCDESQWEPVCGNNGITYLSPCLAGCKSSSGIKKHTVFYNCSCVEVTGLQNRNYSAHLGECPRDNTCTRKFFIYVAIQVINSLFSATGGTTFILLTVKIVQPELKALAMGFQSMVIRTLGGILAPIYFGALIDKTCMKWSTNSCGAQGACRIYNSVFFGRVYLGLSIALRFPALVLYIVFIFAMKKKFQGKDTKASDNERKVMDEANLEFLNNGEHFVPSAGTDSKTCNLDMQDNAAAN
As to the kind of experiment: cis-inhibition of hOATP1B3-mediated TCA uptake in HEK293 cells. Format: cell-based. Details: expressed in transfected cells; host or cells: HEK-293, stably transfected. Particulars: 10 µM drug, 1 µM TCA, 10 min. How it is done: (§1) Inhibitory effects were calculated as a percentage of the net-uptake rates.
(§2) The means ± average deviation (AD, for N = 2) were calculated from two experiments on two different days. The significance as a p-value was calculated using Student’s t-test in Microsoft Excel.

For a further data set, the target named is T4, hOATP1B1 (Homo sapiens, UniProt Q9Y6L6).
T4 sequence (Q9Y6L6 1-691): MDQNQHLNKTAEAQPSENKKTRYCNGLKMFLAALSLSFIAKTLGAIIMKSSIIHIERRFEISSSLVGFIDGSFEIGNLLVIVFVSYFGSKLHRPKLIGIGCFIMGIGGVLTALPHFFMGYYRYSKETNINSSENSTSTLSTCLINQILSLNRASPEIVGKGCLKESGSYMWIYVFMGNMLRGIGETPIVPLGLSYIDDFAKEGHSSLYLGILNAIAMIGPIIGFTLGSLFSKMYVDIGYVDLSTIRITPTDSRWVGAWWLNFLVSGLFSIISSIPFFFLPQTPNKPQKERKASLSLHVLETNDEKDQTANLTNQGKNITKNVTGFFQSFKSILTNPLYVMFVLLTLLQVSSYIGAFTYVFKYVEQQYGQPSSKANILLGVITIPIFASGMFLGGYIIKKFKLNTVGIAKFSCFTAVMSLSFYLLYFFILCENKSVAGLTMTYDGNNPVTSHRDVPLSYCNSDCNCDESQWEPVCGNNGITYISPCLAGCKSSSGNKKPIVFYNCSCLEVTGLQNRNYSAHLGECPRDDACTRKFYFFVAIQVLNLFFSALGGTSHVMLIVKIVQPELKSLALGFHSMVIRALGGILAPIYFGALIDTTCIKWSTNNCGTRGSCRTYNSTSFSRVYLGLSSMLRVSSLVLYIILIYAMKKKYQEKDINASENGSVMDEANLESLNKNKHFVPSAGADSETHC
Put plainly: cis-inhibition of hOATP1B1-mediated E1S uptake in HEK293 cells. The format is cell-based. Details: expressed in transfected cells; host or cells: HEK-293, stably transfected. Particulars: 10 µM drug, 0.01 µM [3H]-E1S, 1 min. The protocol: as §1, §2

Substrate in data set [1]: C[C@H](CCC(=O)NCCS(=O)(=O)O)[C@H]1CC[C@H]2[C@@H]3[C@H](O)C[C@@H]4C[C@H](O)CC[C@]4(C)[C@H]3C[C@H](O)[C@]12C
As to the kind of experiment: cells, lysate or membranes. Particulars: 1 min, 37 °C, increasing unlabeled substrate with 10 nM 3H-substrate, pH 7.4.

Where [2] appears, read: HEK293, 10 µM drug, 1 µM [3H]-E1S, 1 min, read-out: Inhibitory effect on mOATP1B2-mediated E1S uptake.
Setting [3] is: HEK293, read-out: Inhibitory effect on mOATP1B2-mediated TCA uptake, 10 µM drug, 1 µM [3H]-TCA, 1 min.
Setting [4] is: HEK293, 10 µM drug, 1 µM [3H]-E1S, 1 min, read-out: Inhibitory effect on rOATP1B2-mediated E1S uptake.
The mark [5] stands for this setting: HEK293, read-out: Inhibitory effect on rOATP1B2-mediated TCA uptake, 10 µM drug, 1 µM [3H]-TCA, 1 min.
[6] abbreviates: 10 µM drug, substrates E1S and TCA not separated.

Like-named read-outs stand apart in the source and are kept apart here.

`CC(C)c1nc(CN(C)C(=O)N[C@H](C(=O)N[C@@H](Cc2ccccc2)C[C@H](O)[C@H](Cc2ccccc2)NC(=O)OCc2cncs2)C(C)C)cs1` [Ritonavir, ritonavir]: the inhibition at 10 µM at mOATP1B2 (setting [2]) was 74%; at mOATP1B2 (setting [3]) it was 71%; on rOATP1B2 (setting [4]) it was 84%; at rOATP1B2 (setting [5]), 78%; on rOATP1B2 (HEK293, read-out: Inhibitory effect on rOATP1B2-mediated substrate uptake (summary over E1S and TCA), 10 µM drug, substrates E1S and TCA not separated) it was over 70%.
Consider `CCCc1nc(C(C)(C)O)c(C(=O)O)n1Cc1ccc(-c2ccccc2-c2nnn[nH]2)cc1` [Olmesartan, olmesartan], for which the “Inhibitory effect on mOATP1B2-mediated substrate uptake (summary over E1S and TCA)” value at mOATP1B2 (setting [6]) is given as “below 50%”. The inhibition at 10 µM was 18% at mOATP1B2 (setting [2]), 25% on mOATP1B2 (setting [3]), 27% on rOATP1B2 (setting [4]) and 32% at rOATP1B2 (setting [5]). The figures for the “Inhibitory effect on hOATP1B3-mediated TCA uptake” value at hOATP1B3 and on hOATP1B3 (listed as olmesartan) were 29% and “less than 50%”, respectively. Moreover, the “Inhibitory effect on hOATP1B1-mediated E1S uptake” value is reported as 18% at hOATP1B1 and “less than 50%” on hOATP1B1 (listed as olmesartan). The “Inhibitory effect on rOATP1B2-mediated substrate uptake (summary over E1S and TCA)” value at rOATP1B2 (setting [6]) was “below 50%”.

B1: rOATP1B2 (Rattus norvegicus) (protein)
chain: T2 sequence (Q9QZX8 1-687)
As a reminder, the Km is the concentration of substrate that gives half-maximal velocity. Regarding B1, the Km in data set [1] (other: rOATP1B2-HEK293, net uptake) was determined as 16 ± 3 µM.

B2: mOATP1B2 (Mus musculus) (protein)
chain: T1 sequence (Q9JJL3 1-689)
Turning to B2, the Michaelis-Menten constant (Km) in data set [1] (other: mOATP1B2-HEK293, net uptake) is reported as 73 ± 11 µM.
